From publication PMC7154665, “Triple‐Helix‐Stabilizing Effects in Collagen Model Peptides Containing PPII‐Helix‐Preorganized Diproline Modules” (Angewandte Chemie (International Ed. in English), 2020)

Experiments:
[1] = CD thermal denaturation of collagen model peptide triple helices (transition temperature); format: physicochemical; settings: for T m (figure legends and text) / T m of the corresponding CMPs: CD denaturation at 225 nm; for T m (figure legends and text): PBS-buffer, 12 °C h-1 heating rate, * substitution-site altered, ** arginine-free peptides; for T m of the corresponding CMPs: Table 2, CMP Ac‐(PPG)5‐PRG‐PPG‐[XY]G‐(PPG)3‐NH2, PBS, 12 °C h-1; for T m: triple-helix transition temperature, CD ellipticity at 225 nm, 60 µM peptide in PBS (10 mM Na2HPO4, 10 mM NaH2PO4, 150 mM NaCl, pH 7.0), 4 to 70 °C, heating rate 12 °C h-1, two-state fit, error ±1 °C
Method: For all prepared model peptides, CD spectra were recorded in phosphate‐buffered saline (after incubation for […] at 4 °C). […] The curves were fitted to assess triple‐helical stability by the transition temperature (T m, ±1 °C error) in a standardized fashion (see Table 1 and the Supporting Information). Selected denaturation curves are depicted in Figure 4.
CD spectra and Thermal Denaturation Experiments
Experimental setup - Vacuum-dried peptides were dissolved in phosphate-buffered saline (10 mM Na2HPO4, 10 mM NaH2PO4,
150 mM NaCl, pH = 7.0) and the solutions (60 µM peptide) were incubated at 4 °C for at least 48 h for trimerization. CD
measurements were performed on a Jasco J-715 spectropolarimeter using a quartz cuvette (Hellma Analytics, 1 mm path length) and
To study thermal transitions the ellipticity at 225 nm was monitored while increasing the temperature from 4 to
70 °C at a rather slow heating rate of 12 °C h-1 which was controlled electronically (Jasco PTC-348 WI Peltier element). According to
the literature this heating rate still corresponds to non-equilibrium conditions, however, the generated data can be used for internal
Data interpretation - For Tm-determination a two-state-model was employed in which three peptide chains combine to a triple helix
assuming a previously reported mathematical model (vide infra).[7][8] Constants were set (c = 0.00006, R = 8.31) and auxiliary
variables (P, U, V, K) were used to describe the temperature dependence of the folded fraction F. Thermal transition curves were
fitted by optimizing the parameters θmin, θmax, ΔH, and Tm using the Generalized Reduced Gradient algorithm implemented in the
solver tool of MS Excel.[9]. An error of ±1.0 °C was estimated for the resulting Tm values by repeating denaturation experiments.

[2] = biological target: T1, HSP47 (Canis lupus familiaris, UniProt A0A8I3N7V2); assay: HSP47 binding by biolayer interferometry (BLI); parameters: species or system canine; settings: Table S7; BLI curve fitting; KD = koff/kon; errors by propagation of uncertainty; read-out: KD (with error)
T1 construct: coding for residues 36LSP…RDEL418; inferred from Ni-NTA purification with imidazole elution; made in house; host or cells: E. coli BL21 (DE3)
T1 sequence (A0A8I3N7V2 36-418): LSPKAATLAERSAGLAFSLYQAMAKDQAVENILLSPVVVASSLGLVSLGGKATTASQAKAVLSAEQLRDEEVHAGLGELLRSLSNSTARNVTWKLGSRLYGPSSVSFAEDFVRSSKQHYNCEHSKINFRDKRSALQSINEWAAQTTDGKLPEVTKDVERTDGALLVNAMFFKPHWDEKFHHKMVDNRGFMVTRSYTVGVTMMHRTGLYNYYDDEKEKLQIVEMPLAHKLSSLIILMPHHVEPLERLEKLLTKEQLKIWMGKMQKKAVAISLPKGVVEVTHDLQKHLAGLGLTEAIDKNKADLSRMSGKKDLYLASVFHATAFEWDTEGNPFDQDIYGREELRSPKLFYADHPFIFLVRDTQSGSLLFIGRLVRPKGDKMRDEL
Source text: (1 picture or pasted object on this page, not shown here) […]

| T m (figure legends and text) [1] [°C] | T m [1] [°C] | Compound | also measured |
| --- | --- | --- | --- |
| 46.9 | – | Ac-PPG-PPG-PPG-PPG-PPG-PRG-PPG-OOG-PPG-PPG-PPG-NH2 [HypHyp] | – |
| – | – | Ac‐(EtO)2‐ProM2‐OMe | T m of the corresponding CMPs [1]: 38.9 °C; ΔT m ([1]; with regard to the non‐functionalized system (ProM2 series)): −6 °C |
| 40.2 | 40.2 | Ac‐(PPG)5‐PRG‐PPG‐(MeO)2‐ProM2G‐(PPG)3‐NH2 [Entry 12] | – |
| 44 | – | Ac‐(EtO)2‐ProM1‐OMe | T m of the corresponding CMPs [1]: 44.5 °C |
| – | – | N=C(N)NCCC[C@H](NC(=O)[C@@H]1CCCN1C(=O)CNC(=O)[C@@H]1CCCN1C(=O)[C@@H]1CCCN1C(=O)CNC(=O)[C@@H]1CCCN1C(=O)[C@@H]1CCCN1C(=O)CNC(=O)[C@@H]1CCCN1C(=O)[C@@H]1CCCN1C(=O)CNC(=O)[C@@H]1CCCN1C(=O)[C@@H]1CCCN1C(=O)CNC(=O)[C@@H]1CCCN1C(=O)[C@@H]1CCCN1C(=O)CCC(=O)NCCOCCOCCNC(=O)CCCC[C@@H]1SC[C@@H]2NC(=O)N[C@@H]21)C(=O)NCC(=O)N1CCC[C@H]1C(=O)N1CCC[C@H]1C(=O)NCC(=O)N1CCC[C@H]1C(=O)N1CCC[C@H]1C(=O)NCC(=O)N1CCC[C@H]1C(=O)N1CCC[C@H]1C(=O)NCC(=O)N1CCC[C@H]1C(=O)N1CCC[C@H]1C(=O)NCC(=O)N1CCC[C@H]1C(=O)N1CCC[C@H]1C(=O)NCC(N)=O [PP] | Kd [2]: 370.3 ± 1.8 nM |
| 43.0 | 43.0 | Ac‐(PPG)5‐PRG‐PPG‐HO‐ProM1G‐(PPG)3‐NH2 [Entry 5] | – |
| – | 49.8 | Ac‐(PPG)5‐PRG‐PPG‐ProHypG‐(PPG)3‐NH2 [Entry 2] | – |
| – | 44.6 | Ac‐(PPG)3‐H2‐ProM2G‐PPG‐PRG‐(PPG)5‐NH2 [Entry 15] | – |
| – | 40.5 | Ac‐(PPG)3‐ProM1G‐PPG‐PRG‐(PPG)5‐NH2 [Entry 14] | – |
| 43.6 | 43.6 | Ac‐(PPG)5‐PRG‐PPG‐(MeO)2‐ProM1G‐(PPG)3‐NH2 [Entry 7] | – |
| 44.0 | – | Ac-PPG-PPG-PPG-PPG-PPG-PRG-PPG-OPG-PPG-PPG-PPG-NH2 [HypPro] | – |
| – | 39.3 | Ac‐(PPG)5‐PRG‐PPG‐ProM1G‐(PPG)3‐NH2 [Entry 3] | – |
| 38.9 | 38.9 | Ac‐(PPG)5‐PRG‐PPG‐(EtO)2‐ProM2G‐(PPG)3‐NH2 [Entry 13] | – |
| 49.8 | – | COC(=O)[C@@H]1CC(O)CN1C(=O)[C@@H]1CCCN1C(C)=O (stereo partly drawn) [ProHyp] | T m of the corresponding CMPs [1]: 49.8 °C |
| 44.4 | – | Ac-PPG-PPG-PPG-PPG-PPG-PPG-PPG-[H2ProM2]G-PPG-PPG-PPG-NH2 [H2-ProM2**] | – |
| 39.3 | – | Ac‐ProM1‐OMe | T m of the corresponding CMPs [1]: 39.3 °C; ΔT m ([1]; in comparison to reference peptide Ac‐(PPG)5‐PRG‐(PPG)5‐NH2): −6 °C |
| 37.9 | 37.9 | Ac‐(PPG)5‐PRG‐PPG‐(HO)2‐ProM2G‐(PPG)3‐NH2 [Entry 11] | – |
| 44.5 | 44.5 | Ac‐(PPG)5‐PRG‐PPG‐(EtO)2‐ProM1G‐(PPG)3‐NH2 [Entry 8] | – |

| Compound | T m (figure legends and text) [1] [°C] | T m [1] [°C] | also measured |
| --- | --- | --- | --- |
| Ac-PPG-PPG-PPG-PPG-PPG-PPG-PPG-PPG-PPG-PPG-PPG-NH2 [ProPro**] | 45.9 | – | – |
